# From patent US12686652B2, “Methods of increasing irrigation water and fertilizer delivery to soil using formic acid and formate salts, making a formate salt from carbon dioxide, and generating a carbon credit” (Deerpoint Group, Inc., priority 2023, dated 2026)
# Values joined by “and” are separate entries in the source; they are usually repeats but may differ in a detail not shown here. Equal entries are not always repeated. Where two headings read alike, the source gives them in different places.
# Assays:
# [1] = for Liquid Eluted after 60 min / Liquid Eluted after 120 min / Time (50 g of liquid, in min) / Liquid Eluted after 240 min: Ca formate 22 ppm by moles, average of two columns; for Liquid Eluted after 60 min / Liquid Eluted after 120 min / Time (50 g of liquid, in min): HCO2H 0.33% by weight
# Description: The objective was to investigate the behavior of different irrigation water treatments and determine the relative amounts of water that passed through the soil columns. The column retention times reflect the rate at which the liquid passes through the soil. Understanding these retention times provides insights about the transport and movement of irrigation water (and any fertilizers dissolved therein) through the soil, which has implications for the volume of water passing into and through the root zone, nutrient availability to crops, leaching of contaminants, and overall soil health.
# The data in Table 1 is for the average of the two soil samples.
# [2] = Description: The irrigation water at the second farm was from a different source than the first farm.
# [3] = first farm soil, duplicate columns A and B
# [4] = ICP and flow injection (FIA) analyses of solutions passed through soil columns, second farm; settings: single soil sample
# [5] = for Solubility as percentage of the solubility of potassium formate in water: 68-86° F. (20-30° C.); for Solubility (g K2O/100 g H2O): water
# [6] = first pass, dry soil, second farm (FIG. 3)
# [7] = 1st pass, Alternating = formic acid pass
# [8] = 2nd pass, Alternating = calcium formate pass
# [9] = 3rd pass, Alternating = formic acid pass
# [10] = 4th pass, Alternating = calcium formate pass
# 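Throughout, for Mn in solution passed through soil column (ICP): eluate from PVC columns holding 100 g of dry ground farm soil, analysed by ICP-OES for element content after the solution had drained through, irrigation water measured as received for reference.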
compound,measurement,setting,value
"O=C[O-].O=C[O-].[Ca+2] [Ca formate, calcium formate]","Drainage Rate: Time (50 g), percentage relative to irrigation water","[1]; 1st pass, first farm soil",66.7%
same,"Drainage Rate: liquid eluted at 60 mins, percentage relative to irrigation water","[1]; 1st pass, first farm soil",180%
same,"Drainage Rate: liquid eluted at 120 mins, percentage relative to irrigation water","[1]; 1st pass, first farm soil",152%
same,Liquid Eluted after 60 min,"[1]; 1st pass, first farm soil",28.6 g
same,Liquid Eluted after 120 min,"[1]; 1st pass, first farm soil",53.9 g
same,"Time (50 g of liquid, in min)","[1]; 1st pass, first farm soil",120 min
same,"Drainage Rate: Time (50 g), percentage relative to irrigation water","[1]; 2nd pass, first farm soil",66.7%
same,"Drainage Rate: liquid eluted at 60 mins, percentage relative to irrigation water","[1]; 2nd pass, first farm soil",157%
same,"Drainage Rate: liquid eluted at 120 mins, percentage relative to irrigation water","[1]; 2nd pass, first farm soil",150%
same,"Drainage Rate: liquid eluted at 240 min, percentage relative to irrigation water","[1]; 2nd pass, first farm soil",137%
same,Liquid Eluted after 60 min,"[1]; 2nd pass, first farm soil",33.3 g
same,Liquid Eluted after 120 min,"[1]; 2nd pass, first farm soil",59.9 g
same,"Time (50 g of liquid, in min)","[1]; 2nd pass, first farm soil",120 min
same,Liquid Eluted after 240 min,"[1]; 2nd pass, first farm soil",98.5 g
same,"Drainage Rate: Time (50 g), percentage relative to irrigation water","[1]; 3rd pass, first farm soil",83.3%
same,"Drainage Rate: liquid eluted at 60 mins, percentage relative to irrigation water","[1]; 3rd pass, first farm soil",138%
same,"Drainage Rate: liquid eluted at 120 mins, percentage relative to irrigation water","[1]; 3rd pass, first farm soil",135%
same,"Drainage Rate: liquid eluted at 240 min, percentage relative to irrigation water","[1]; 3rd pass, first farm soil",131%
same,Liquid Eluted after 60 min,"[1]; 3rd pass, first farm soil",26.4 g
same,Liquid Eluted after 120 min,"[1]; 3rd pass, first farm soil",48.8 g
same,"Time (50 g of liquid, in min)","[1]; 3rd pass, first farm soil",150 min
same,Liquid Eluted after 240 min,"[1]; 3rd pass, first farm soil",86.7 g
same,"Drainage Rate: Time (50 g), percentage relative to irrigation water","[1]; 4th pass, first farm soil",83.3%
same,"Drainage Rate: liquid eluted at 60 mins, percentage relative to irrigation water","[1]; 4th pass, first farm soil",123%
same,"Drainage Rate: liquid eluted at 120 mins, percentage relative to irrigation water","[1]; 4th pass, first farm soil",118%
same,"Drainage Rate: liquid eluted at 240 min, percentage relative to irrigation water","[1]; 4th pass, first farm soil",110%
same,Liquid Eluted after 60 min,"[1]; 4th pass, first farm soil",24.1 g
same,Liquid Eluted after 120 min,"[1]; 4th pass, first farm soil",44.6 g
same,"Time (50 g of liquid, in min)","[1]; 4th pass, first farm soil",150 min
same,Liquid Eluted after 240 min,"[1]; 4th pass, first farm soil",75.0 g
same,Liquid retained by the soil samples on average,"[1]; first pass, dry soil, first farm, 100 ml added (FIG. 1)",about 36 ml
same,Improvement in amount of liquid eluted compared to the irrigation water,"[1]; fixed periods 60, 120 and 240 mins, first farm soil",110-180%
same,Liquid retained by the soil samples on average,[2]; [6],43 to 44 mL
same,Time at which solution had completed passing through the soil column on average,[2]; [6],about 240 minutes
same,Time of first appearance of liquid from the columns on average,[2]; [6],20 to 30 min
same,Amount of liquid passed through the columns compared with irrigation water at the same lengths of time,"[2]; first pass, second farm, from 20-30 minutes up to 240 minutes",more than three times as much
same,Time at which solution had completed passing through the soil column on average,"[2]; second pass, wet/damp soil, second farm (FIG. 4)",about 390 minutes
same,B in solution passed through soil column (ICP),[3]; 1st pass,4.35 ppm and 4.97 ppm
same,Ca in solution passed through soil column (ICP),[3]; 1st pass,135.1 ppm and 142.4 ppm
same,K in solution passed through soil column (ICP),[3]; 1st pass,10.81 ppm and 11.82 ppm
same,Mg in solution passed through soil column (ICP),[3]; 1st pass,53.6 ppm and 56.4 ppm
same,Mn in solution passed through soil column (ICP),[3]; 1st pass,1.95 ppm and 2.09 ppm
same,Na in solution passed through soil column (ICP),[3]; 1st pass,82.3 ppm and 88.9 ppm
same,P in solution passed through soil column (ICP),[3]; 1st pass,0.45 ppm and 0.36 ppm
same,S in solution passed through soil column (ICP),[3]; 1st pass,99.1 ppm and 103.0 ppm
same,Si in solution passed through soil column (ICP),[3]; 1st pass,26.5 ppm and 27.6 ppm
same,B in solution passed through soil column (ICP),[3]; 2nd pass,2.41 ppm and 2.40 ppm
same,Ca in solution passed through soil column (ICP),[3]; 2nd pass,26.6 ppm and 25.2 ppm
same,K in solution passed through soil column (ICP),[3]; 2nd pass,5.69 ppm and 5.73 ppm
same,Mg in solution passed through soil column (ICP),[3]; 2nd pass,10.4 ppm and 9.8 ppm
same,Mn in solution passed through soil column (ICP),[3]; 2nd pass,0.19 ppm and 0.22 ppm
same,Na in solution passed through soil column (ICP),[3]; 2nd pass,36.8 ppm and 38.2 ppm
same,P in solution passed through soil column (ICP),[3]; 2nd pass,0.40 ppm and 0.41 ppm
same,S in solution passed through soil column (ICP),[3]; 2nd pass,21.2 ppm and 19.6 ppm
same,Si in solution passed through soil column (ICP),[3]; 2nd pass,25.2 ppm and 26.2 ppm
same,B in solution passed through soil column (ICP),[3]; 3rd pass,1.74 ppm and 1.48 ppm
same,Ca in solution passed through soil column (ICP),[3]; 3rd pass,21.1 ppm and 19.4 ppm
same,K in solution passed through soil column (ICP),[3]; 3rd pass,6.01 ppm and 5.41 ppm
same,Mg in solution passed through soil column (ICP),[3]; 3rd pass,8.2 ppm and 7.6 ppm
same,Na in solution passed through soil column (ICP),[3]; 3rd pass,32.7 ppm and 31.1 ppm
same,P in solution passed through soil column (ICP),[3]; 3rd pass,0.68 ppm and 0.58 ppm
same,S in solution passed through soil column (ICP),[3]; 3rd pass,13.9 ppm and 13.0 ppm
same,Si in solution passed through soil column (ICP),[3]; 3rd pass,28.4 ppm and 26.2 ppm
same,B in solution passed through soil column (ICP),[3]; 4th pass,0.69 ppm and 0.73 ppm
same,Ca in solution passed through soil column (ICP),[3]; 4th pass,15.0 ppm and 15.9 ppm
same,K in solution passed through soil column (ICP),[3]; 4th pass,5.09 ppm and 5.06 ppm
same,Mg in solution passed through soil column (ICP),[3]; 4th pass,5.9 ppm and 6.0 ppm
same,Mn in solution passed through soil column (ICP),[3]; 4th pass,0.05 ppm and 0.04 ppm
same,Na in solution passed through soil column (ICP),[3]; 4th pass,21.6 ppm and 22.9 ppm
same,P in solution passed through soil column (ICP),[3]; 4th pass,0.56 ppm
same,S in solution passed through soil column (ICP),[3]; 4th pass,5.3 ppm and 5.5 ppm
same,Si in solution passed through soil column (ICP),[3]; 4th pass,22.3 ppm and 22.7 ppm
same,B in solution passed through soil column (ICP),[4]; [7],0.5 ppm
same,Ca in solution passed through soil column (ICP),[4]; [7],76.1 ppm
same,Cl^− in solution passed through soil column (FIA),[4]; [7],288.0 ppm
same,K in solution passed through soil column (ICP),[4]; [7],4.5 ppm
same,Mg in solution passed through soil column (ICP),[4]; [7],19.6 ppm
same,NO3^− in solution passed through soil column (FIA),[4]; [7],0.0 ppm
same,Na in solution passed through soil column (ICP),[4]; [7],169.0 ppm
same,P in solution passed through soil column (ICP),[4]; [7],1.0 ppm
same,S in solution passed through soil column (ICP),[4]; [7],51.4 ppm
same,Si in solution passed through soil column (ICP),[4]; [7],26.3 ppm
same,B in solution passed through soil column (ICP),[4]; [8],0.3 ppm
same,Ca in solution passed through soil column (ICP),[4]; [8],24.0 ppm
same,Cl^− in solution passed through soil column (FIA),[4]; [8],92.1 ppm
same,K in solution passed through soil column (ICP),[4]; [8],2.5 ppm
same,Mg in solution passed through soil column (ICP),[4]; [8],6.1 ppm
same,NO3^− in solution passed through soil column (FIA),[4]; [8],0.0 ppm
same,Na in solution passed through soil column (ICP),[4]; [8],110.4 ppm
same,P in solution passed through soil column (ICP),[4]; [8],1.1 ppm
same,S in solution passed through soil column (ICP),[4]; [8],14.8 ppm
same,Si in solution passed through soil column (ICP),[4]; [8],26.9 ppm
same,B in solution passed through soil column (ICP),[4]; [9],0.2 ppm
same,Ca in solution passed through soil column (ICP),[4]; [9],21.7 ppm
same,Cl^− in solution passed through soil column (FIA),[4]; [9],91.9 ppm
same,K in solution passed through soil column (ICP),[4]; [9],2.4 ppm
same,Mg in solution passed through soil column (ICP),[4]; [9],5.5 ppm
same,NO3^− in solution passed through soil column (FIA),[4]; [9],0.0 ppm
same,Na in solution passed through soil column (ICP),[4]; [9],96.4 ppm
same,P in solution passed through soil column (ICP),[4]; [9],1.0 ppm
same,S in solution passed through soil column (ICP),[4]; [9],10.3 ppm
same,Si in solution passed through soil column (ICP),[4]; [9],24.3 ppm
same,B in solution passed through soil column (ICP),[4]; [10],0.2 ppm
same,Ca in solution passed through soil column (ICP),[4]; [10],30.4 ppm
same,Cl^− in solution passed through soil column (FIA),[4]; [10],93.6 ppm
same,K in solution passed through soil column (ICP),[4]; [10],2.4 ppm
same,Mg in solution passed through soil column (ICP),[4]; [10],7.5 ppm
same,NO3^− in solution passed through soil column (FIA),[4]; [10],0.0 ppm
same,Na in solution passed through soil column (ICP),[4]; [10],95.4 ppm
same,P in solution passed through soil column (ICP),[4]; [10],0.9 ppm
same,S in solution passed through soil column (ICP),[4]; [10],10.1 ppm
same,Si in solution passed through soil column (ICP),[4]; [10],23.3 ppm
"[Cl-].[K+] [KCl, potassium chloride]",Solubility as percentage of the solubility of potassium formate in water,[5],about 12%
same,Solubility (g K2O/100 g H2O),[5]; 32 ° F.,18 g K2O/100 g H2O
same,Solubility (g K2O/100 g H2O),[5]; 68 ° F.,22 g K2O/100 g H2O
same,Solubility (g K2O/100 g H2O),[5]; 86 ° F.,24 g K2O/100 g H2O
"O=S([O-])([O-])=S.[K+].[K+] [K2SSO3, potassium thiosulfate]",Solubility as percentage of the solubility of potassium formate in water,[5],about 40%
same,Solubility (g K2O/100 g H2O),[5]; 32 ° F.,48 g K2O/100 g H2O
same,Solubility (g K2O/100 g H2O),[5]; 68 ° F.,77 g K2O/100 g H2O
same,Solubility (g K2O/100 g H2O),[5]; 86 ° F.,87 g K2O/100 g H2O
